PubChem BioAssay AID1963827 (Molecular Pharmacology Branch, DTP, NCI, 2024)
pIC50: −log10 of the molar value.

System: 994946-033-R-J1-PDC complex spheroid viability
Test: Anticancer human tumor 994946-033-R-J1-PDC patient-derived melanoma cell line growth inhibition [POLQ]
Settings: for pIC50: curve of first compound; for viability, T/C: stronger effect = lower value
Experimental: Multicellular complex tumor spheroid response to Polymerase (POL) inhibitors (novobiocin, ART-558, RP6685) in combination with a variety of drugs and investigational agents in selected tumor cell lines
The POL inhibitors (novobiocin, ART-558, and RP6685) were evaluated both individually and in combination with standard of care and investigational anticancer small molecules within a complex spheroid model of solid tumors. . Complex spheroids include a stromal component modeled by human endothelial cells (HUVEC) and fibroblasts modeled by human mesenchymal stem cells (MSCs). The concentration ranges selected for each drug and investigational agent were based upon clinically achievable concentrations if the clinical Cmax of the agent was known.
Compounds. The drugs and investigational agents: novobiocin (NSC847541), ART-558 (NSC835418), RP-6685 (NSC848927), peposertib (NSC802822), ceralasertib (NSC780249), elimusertib (NSC800525), camonsertib (NSC841442), AZD-1390 (NSC803789), olaparib (NSC753686), talazoparib (NSC767125), rucaparib (NSC756644), sotorasib (NSC818433), MRTX-1133 (NSC836407), SN-38 (NSC673596), topotecan (NSC609699), epotoside (NSC141540), doxorubicin (NSC123127), gemcitabine (NSC613327), 5-fluorouracil (NSC19893), paclitaxel (NSC125973), vemurafenib (NSC761431), MSA-2 (NSC828583), SN-011 (NSC837082), adavosertib (NSC754352), prexasertib (NSC758257), carboplatin (NSC241240) and oxaliplatin (NSC266046), were obtained from the National Cancer Institute (NCI) Developmental Therapeutics Program Chemical Repository (21). The FDA-approved anticancer drug set is available from the Developmental Therapeutics Program at https://dtp.cancer.gov/organization/dscb/obtaining/. […] The stock solutions were prepared in dimethyl sulfoxide (DMSO, Sigma-Aldrich, St. Louis, MO, cat. D2650), except for the platinum compounds which were prepared in saline (Quality Biological, Gaithersburg, MD, cat. 114-055-101), at 800-fold the tested concentration and stored at -70 degrees C prior to their use. All drugs and investigational agents were tested over a range starting from a high concentration at or near the clinical Cmax and decreasing in half-log increments. If the clinical Cmax for an agent had not been determined, the highest concentration tested was 10 microM, except for SN-38, which was tested at a high concentration of 1 microM.
Cell Culture. All cells were maintained in an incubator at 37 degrees C and 5% CO2 with 95% humidity. The PDC lines were cultured according to standard operating procedures established by the NCI PDMR (https://pdmr.cancer.gov). Table 3 of the manuscript, lists the cell lines along with the number of the three cell types plated to form the mct-spheroids and media for tumor cell growth. After thawing, all PDC lines, except 997537-175-T-J1-PDC and 415267-285-R-J2-PDC, were cultured in Matrigel-coated flasks prepared with a working solution of 1X Ham's F-12 nutrient mix, without supplementation (Thermo Fisher Scientific, cat. 11765054), 100 U/mL penicillin-streptomycin (Thermo Fisher Scientific, cat. 15140122), and 2.5% Matrigel (Corning Inc., Corning, NY, cat. 354248) for the first three passages. The two PDC lines 997537-175-T-J1-PDC and 415267-285-R-J2-PDC were cultured on uncoated flasks. The 857933-349-R-J2-PDC line was cultured in 6C/Colon 1B media containing advanced DMEM/F-12 (Thermo Fisher Scientific, cat. 12634028), 10 mM HEPES (Thermo Fisher Scientific, cat. 15630080), 1X GlutaMAX supplement (Thermo Fisher Scientific, cat. 35050061), 0.1 mg/mL primocin (InvivoGen, San Diego, CA, cat. ant-pm-2), 10% defined fetal bovine serum, heat inactivated (HyClone Laboratories Inc., Logan, UT, cat. SH30070.03HI), 50% L-WRN conditioned media (ATCC, cat. CRL-3276), 1.25 mM N-Acetyl-L-cysteine (Sigma-Aldrich, cat. A9165), 10 mM nicotinamide (Sigma-Aldrich, cat. N0636), 1X B-27 supplement (Thermo Fisher Scientific, cat. 17504044), 1X N-2 supplement (Thermo Fisher Scientific, cat. […]
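Also: spheroids exposed to drugs for 7 days.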
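For viability, T/C in this document: 100% = DMSO vehicle treated spheroids.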

CC(=O)O[C@H]1C(=O)[C@@]2(C)[C@H]([C@H](OC(=O)c3ccccc3)[C@]3(O)C[C@H](OC(=O)[C@H](O)[C@@H](NC(=O)c4ccccc4)c4ccccc4)C(C)=C1C3(C)C)[C@]1(OC(C)=O)CO[C@@H]1C[C@@H]2O + Cc1cccc(N(C)C(=O)C2C(O)CCN2c2nc(C)cc(C(F)(F)F)c2C#N)c1
pIC50 (second compound 0.0316 µM): > 8.02
pIC50 (second compound 0.1 µM): > 8.02
pIC50 (second compound 0.316 µM): > 8.02
pIC50 (second compound 1 µM): > 8.02
pIC50 (second compound 3.16 µM): > 8.02
pIC50 (second compound 10 µM): > 8.02
viability, T/C (second compound 0.0316 µM, first compound 0.00949 µM): 19.5%
viability, T/C (second compound 0.0316 µM, first compound 0.03 µM): 19.7%
viability, T/C (second compound 0.0316 µM, first compound 0.0949 µM): 20.6%
viability, T/C (second compound 0.0316 µM, first compound 0.3 µM): 13.5%
viability, T/C (second compound 0.0316 µM, first compound 0.949 µM): 9.96%
viability, T/C (second compound 0.0316 µM, first compound 3 µM): 8.94%
viability, T/C (second compound 0.1 µM, first compound 0.00949 µM): 22.4%
viability, T/C (second compound 0.1 µM, first compound 0.03 µM): 20.6%
viability, T/C (second compound 0.1 µM, first compound 0.0949 µM): 16.8%
viability, T/C (second compound 0.1 µM, first compound 0.3 µM): 16.8%
viability, T/C (second compound 0.1 µM, first compound 0.949 µM): 10.6%
viability, T/C (second compound 0.1 µM, first compound 3 µM): 12.3%
viability, T/C (second compound 0.316 µM, first compound 0.00949 µM): 16.1%
viability, T/C (second compound 0.316 µM, first compound 0.03 µM): 31.9%
viability, T/C (second compound 0.316 µM, first compound 0.0949 µM): 16.3%
viability, T/C (second compound 0.316 µM, first compound 0.3 µM): 15.3%
viability, T/C (second compound 0.316 µM, first compound 0.949 µM): 14.7%
viability, T/C (second compound 0.316 µM, first compound 3 µM): 14.6%
viability, T/C (second compound 1 µM, first compound 0.00949 µM): 23.4%
viability, T/C (second compound 1 µM, first compound 0.03 µM): 21.8%
viability, T/C (second compound 1 µM, first compound 0.0949 µM): 18.9%
viability, T/C (second compound 1 µM, first compound 0.3 µM): 19.6%
viability, T/C (second compound 1 µM, first compound 0.949 µM): 12.4%
viability, T/C (second compound 1 µM, first compound 3 µM): 12.7%
viability, T/C (second compound 3.16 µM, first compound 0.00949 µM): 23%
viability, T/C (second compound 3.16 µM, first compound 0.03 µM): 24.2%
viability, T/C (second compound 3.16 µM, first compound 0.0949 µM): 20.3%
viability, T/C (second compound 3.16 µM, first compound 0.3 µM): 17.3%
viability, T/C (second compound 3.16 µM, first compound 0.949 µM): 14.5%
viability, T/C (second compound 3.16 µM, first compound 3 µM): 12.9%
viability, T/C (second compound 10 µM, first compound 0.00949 µM): 21.6%
viability, T/C (second compound 10 µM, first compound 0.03 µM): 26.2%
viability, T/C (second compound 10 µM, first compound 0.0949 µM): 23.9%
viability, T/C (second compound 10 µM, first compound 0.3 µM): 18.5%
viability, T/C (second compound 10 µM, first compound 0.949 µM): 15%
viability, T/C (second compound 10 µM, first compound 3 µM): 15.7%

Nc1ccn(C2OC(CO)C(O)C2(F)F)c(=O)n1 (centres undefined) + Cc1cccc(N(C)C(=O)C2C(O)CCN2c2nc(C)cc(C(F)(F)F)c2C#N)c1
pIC50 (second compound 0.0316 µM): > 7.50
pIC50 (second compound 0.1 µM): > 7.50
pIC50 (second compound 0.316 µM): > 7.50
pIC50 (second compound 1 µM): > 7.50
pIC50 (second compound 3.16 µM): > 7.50
pIC50 (second compound 10 µM): > 7.50
viability, T/C (second compound 0.0316 µM, first compound 0.0316 µM): 26.7%
viability, T/C (second compound 0.0316 µM, first compound 0.1 µM): 6.28%
viability, T/C (second compound 0.0316 µM, first compound 0.316 µM): 4.88%
viability, T/C (second compound 0.0316 µM, first compound 1 µM): 6.63%
viability, T/C (second compound 0.0316 µM, first compound 3.16 µM): 3.54%
viability, T/C (second compound 0.0316 µM, first compound 10 µM): 2.78%
viability, T/C (second compound 0.1 µM, first compound 0.0316 µM): 49.3%
viability, T/C (second compound 0.1 µM, first compound 0.1 µM): 5.24%
viability, T/C (second compound 0.1 µM, first compound 0.316 µM): 5.13%
viability, T/C (second compound 0.1 µM, first compound 1 µM): 4.71%
viability, T/C (second compound 0.1 µM, first compound 3.16 µM): 4.54%
viability, T/C (second compound 0.1 µM, first compound 10 µM): 2.88%
viability, T/C (second compound 0.316 µM, first compound 0.0316 µM): 24.7%
viability, T/C (second compound 0.316 µM, first compound 0.1 µM): 5.51%
viability, T/C (second compound 0.316 µM, first compound 0.316 µM): 5.07%
viability, T/C (second compound 0.316 µM, first compound 1 µM): 4.92%
viability, T/C (second compound 0.316 µM, first compound 3.16 µM): 4.06%
viability, T/C (second compound 0.316 µM, first compound 10 µM): 1.82%
viability, T/C (second compound 1 µM, first compound 0.0316 µM): 23.1%
viability, T/C (second compound 1 µM, first compound 0.1 µM): 7.5%
viability, T/C (second compound 1 µM, first compound 0.316 µM): 4.98%
viability, T/C (second compound 1 µM, first compound 1 µM): 4.8%
viability, T/C (second compound 1 µM, first compound 3.16 µM): 4.33%
viability, T/C (second compound 1 µM, first compound 10 µM): 2.48%
viability, T/C (second compound 3.16 µM, first compound 0.0316 µM): 39.7%
viability, T/C (second compound 3.16 µM, first compound 0.1 µM): 6.77%
viability, T/C (second compound 3.16 µM, first compound 0.316 µM): 4.52%
viability, T/C (second compound 3.16 µM, first compound 1 µM): 5.28%
viability, T/C (second compound 3.16 µM, first compound 3.16 µM): 4.61%
viability, T/C (second compound 3.16 µM, first compound 10 µM): 2.97%
viability, T/C (second compound 10 µM, first compound 0.0316 µM): 48.6%
viability, T/C (second compound 10 µM, first compound 0.1 µM): 13.3%
viability, T/C (second compound 10 µM, first compound 0.316 µM): 6.55%
viability, T/C (second compound 10 µM, first compound 1 µM): 5.55%
viability, T/C (second compound 10 µM, first compound 3.16 µM): 5.13%
viability, T/C (second compound 10 µM, first compound 10 µM): 1.86%
